The text below walks through data of US20190048054A1, “Mesenchymal Stem Cells Expressing Biomarkers that Predict the Effectiveness of Mesenchymal Stem Cells for Treating Diseases and Disorders” (priority 2014, published 2019).

The subject of one data set is hMSCs. Nature of the data set: Cell viability of hMSCs after estradiol treatment (photographs). The class given is cell-based, human. The following applies: estradiol treatment for 4 days (FIG. 2C).
Data set [1] deals with animal models for human diseases. The following applies: administration of recombinant TSG-6; cited from earlier work.

Take `C[C@]12CC[C@@H]3c4ccc(O)cc4CC[C@H]3[C@@H]1CC[C@@H]2O` [estradiol]: in the data set on hMSCs, the cell viability entry is “without affecting cell viability”.
With “recombinant TSG-6: naturally occurring anti-inflammatory protein of 35 kDa, SEQ ID NO: 1; given as recombinant protein”, in data set [1], the “beneficial effects compared with hMSCs” value is recorded as “reproduced most of the beneficial effects of the hMSCs”.
